In brackets after ≈: the same amount, converted by molar mass.
Tests used:
[1] = Brossi et al.; cited from earlier work
[2] = test system: P. falciparum D-6 clone; assay: In vitro antimalarial activity, P. falciparum D-6 clone; format: cell-based; settings: Table 3, tricyclic analogs, D-6 clone
Description: (§1) The analogs have been segregated arbitrarily here into those compounds in which the tetracyclic skeleton is intact (Table 2) and various ring-cleaved analogs (Table 3). The activities of the conventional malaria therapeutics chloroquine, mefloquine, and pyrimethamine is included for comparison.

[3] = test system: P. falciparum W-2 clone; assay: In vitro antimalarial activity, P. falciparum W-2 clone; format: cell-based; settings: Table 3, tricyclic analogs, W-2 clone
Description: as §1

[4] = test system: P. falciparum; assay: In vitro antimalarial activity / SAR data, clone not stated; format: cell-based; settings: of the activity of 12 (artemisinin); clone not stated
Description: as §1

IC50 ([2]; Plasmodium falciparum, read-out: In vitro IC50 D-6 clone) [µg/mL]	IC50 ([3]; Plasmodium falciparum, read-out: In vitro IC50 W-2 clone) [µg/mL]	Compound	potency relative to artemisinin (12) [1]	Relative potency (D-6 clone) [2]	Relative potency (W-2 clone) [3]	activity relative to 12 [4]
		CCO[C@H]1O[C@@H]2O[C@@]3(C)CC[C@H]4[C@H](C)CC[C@@H]([C@H]1C)[C@@]24OO3 [arteether]	higher potency			
0.0222 (≈ 0.0867 µM)	0.0381 (≈ 0.149 µM)	C[C@H]1C(=O)O[C@@H]2OC(C)(C)OO[C@@]23CCCC[C@@H]13 (relative stereo) [compound 4582]		20	6	about 20%

Source: patent US5216175A, “Antimalarial analogs of artemisinin” (SRI International, priority 1990, dated 1993)
